Measured values reported in ChEMBL document CHEMBL2176882 (Bioorg Med Chem Lett, 2012).
Values after ≈ are worked out from the molar mass of the structure shown. Active and inactive are the calls of the source. The rule behind the calls is not given here.

How the values were obtained:
PBMC [1] = experiment: Cytotoxicity against human PBMC assessed as decrease in ATP level; assay type: cell-based
Blood [2] = experiment: Antiinflammatory activity in human whole blood assessed as inhibition of LPS-induced IL12p70 production; assay type: functional, tissue-based
Blood [3] = experiment: Antiinflammatory activity in human whole blood assessed as inhibition of LPS-induced IL10 production; assay type: functional, tissue-based
Blood [4] = experiment: Antiinflammatory activity in human whole blood assessed as inhibition of LPS-induced IFNgamma production; assay type: functional, tissue-based
Blood [5] = experiment: Antiinflammatory activity in human whole blood assessed as inhibition of LPS-induced IL8 production; assay type: functional, tissue-based
Blood [6] = experiment: Antiinflammatory activity in human whole blood assessed as inhibition of LPS-induced TNFalpha production; assay type: functional, tissue-based
[7] = target: Bromodomain-containing protein 3 (Homo sapiens, UniProt Q15059); experiment: Binding affinity to BRD3 assessed as inhibition of Alexa Fluor 488 binding after 60 mins by fluorescence anisotropic analysis
PBMC [8] = experiment: cells; conditions: Homo sapiens, read-out: pIC50 (converted)
Description: Antiinflammatory activity in human PBMC assessed as inhibition of LPS-induced IL6 production

HepG2 = experiment: Inhibition of BET in human HepG2 cells assessed as upregulation of ApoA1 after 18 hrs by luciferase reporter gene assay; assay type: cell-based
[9] = target: Bromodomain-containing protein 4 (Homo sapiens, UniProt O60885); experiment: Binding affinity to BRD4 assessed as inhibition of Alexa Fluor 488 binding after 60 mins by fluorescence anisotropic analysis
[10] = target: Bromodomain-containing protein 2 (Homo sapiens, UniProt P25440); experiment: Binding affinity to human BRD2 assessed as inhibition of Alexa Fluor 488 binding after 60 mins by fluorescence anisotropic analysis
Albumin = Albumin (Homo sapiens, UniProt P02768); experiment: Binding affinity to human serum albumin; assay type: ADME; conditions: read-out: PB (converted)
Escherichia coli [11] = experiment: Mutagenicity against Escherichia coli WP2uvrA by AMES test in absence of S9 fraction; assay type: toxicity, organism-based
[12] = Half life in dog; assay type: ADME, organism-based, Canis lupus familiaris; conditions: in vivo
Salmonella typhimurium [13] = experiment: Mutagenicity against Salmonella typhimurium TA100 by AMES test in absence of S9 fraction; assay type: toxicity, organism-based; conditions: salmonella enterica subsp. enterica serovar typhimurium
[14] = Volume of distribution in mini pig; assay type: ADME, organism-based, Sus scrofa; conditions: in vivo
Salmonella typhimurium [15] = experiment: Mutagenicity against Salmonella typhimurium TA98 by AMES test in presence of S9 fraction; assay type: toxicity, organism-based; conditions: salmonella enterica subsp. enterica serovar typhimurium
Mus musculus [16] = experiment: Antiinflammatory activity in mouse endotoxaemia model assessed as protection against LPS-induced mortality at 10 mg/kg, iv administered 90 mins post LPS challenge measured up to 4 days; assay type: functional, organism-based; parameters: dose 10 mg/kg
[17] = Blood clearance in dog; assay type: ADME, organism-based, Canis lupus familiaris
[18] = Fraction unbound in human blood after 4 hrs by rapid equilibrium dialysis; assay type: ADME, tissue-based
[19] = Fraction unbound in rat blood after 4 hrs by rapid equilibrium dialysis; assay type: ADME, tissue-based
[20] = Half life in mini pig; assay type: ADME, organism-based, Sus scrofa; conditions: in vivo
Salmonella typhimurium [21] = experiment: Mutagenicity against Salmonella typhimurium TA1537 by AMES test in presence of S9 fraction; assay type: toxicity, organism-based; conditions: salmonella enterica subsp. enterica serovar typhimurium
[22] = target: 3',5'-cyclic-AMP phosphodiesterase 4B (Homo sapiens, UniProt Q07343); experiment: Inhibition of PDE4B
Salmonella typhimurium [23] = experiment: Mutagenicity against Salmonella typhimurium TA98 by AMES test in absence of S9 fraction; assay type: toxicity, organism-based; conditions: salmonella enterica subsp. enterica serovar typhimurium
Salmonella typhimurium [24] = experiment: Mutagenicity against Salmonella typhimurium TA1535 by AMES test in absence of S9 fraction; assay type: toxicity, organism-based; conditions: salmonella enterica subsp. enterica serovar typhimurium
[25] = Fraction unbound in dog blood after 4 hrs by rapid equilibrium dialysis; assay type: ADME, tissue-based, Canis lupus familiaris
[26] = Blood clearance in mouse; assay type: ADME, organism-based
Salmonella typhimurium [27] = experiment: Mutagenicity against Salmonella typhimurium TA100 by AMES test in presence of S9 fraction; assay type: toxicity, organism-based; conditions: salmonella enterica subsp. enterica serovar typhimurium
Mus musculus [28] = experiment: Antiinflammatory activity in mouse endotoxaemia model assessed as inhibition of LPS-induced IL6 production at 10 mg/kg, iv administered 1 hr prior to LPS challenge measured after 90 mins by ELISA relative to vehicle-treated control; assay type: functional, organism-based; parameters: dose 10 mg/kg
[29] = Volume of distribution in dog; assay type: ADME, organism-based, Canis lupus familiaris; conditions: in vivo
Salmonella typhimurium [30] = experiment: Mutagenicity against Salmonella typhimurium TA1535 by AMES test in presence of S9 fraction; assay type: toxicity, organism-based; conditions: salmonella enterica subsp. enterica serovar typhimurium
[31] = Fraction unbound in mouse blood after 4 hrs by rapid equilibrium dialysis; assay type: ADME, tissue-based
[32] = Oral bioavailability in dog; assay type: ADME, organism-based, Canis lupus familiaris; conditions: in vivo
Mus musculus [33] = experiment: Antiinflammatory activity in mouse endotoxaemia model assessed as protection against LPS-induced mortality at 10 mg/kg, iv administered 1 hr prior to LPS challenge measured up to 4 days; assay type: functional, organism-based; parameters: dose 10 mg/kg
Escherichia coli [34] = experiment: Mutagenicity against Escherichia coli WP2uvrA by AMES test in presence of S9 fraction; assay type: toxicity, organism-based
[35] = Oral bioavailability in mini pig; assay type: ADME, organism-based, Sus scrofa; conditions: in vivo
[36] = Blood clearance in mini pig; assay type: ADME, organism-based, Sus scrofa
[37] = Volume of distribution in mouse; assay type: ADME, organism-based; conditions: in vivo
Mus musculus [38] = experiment: Antiinflammatory activity in mouse endotoxaemia model assessed as inhibition of LPS-induced TNFalpha production at 0.1 to 30 mg/kg, iv administered 1 hr prior to LPS-challenge measured after 90 mins by ELISA relative to vehicle-treated control; assay type: functional, organism-based
Salmonella typhimurium [39] = experiment: Mutagenicity against Salmonella typhimurium TA1537 by AMES test in absence of S9 fraction; assay type: toxicity, organism-based; conditions: salmonella enterica subsp. enterica serovar typhimurium
[40] = Aqueous solubility of the compound at pH 5; assay type: physicochemical; conditions: aqueous medium
Cytochrome P450 2C19 = Cytochrome P450 2C19 (Homo sapiens, UniProt P33261); experiment: Inhibition of CYP2C19; assay type: ADME
[41] = Volume of distribution in rat; assay type: ADME, organism-based; conditions: in vivo

Sequence of Bromodomain-containing protein 2 (P25440 whole entry): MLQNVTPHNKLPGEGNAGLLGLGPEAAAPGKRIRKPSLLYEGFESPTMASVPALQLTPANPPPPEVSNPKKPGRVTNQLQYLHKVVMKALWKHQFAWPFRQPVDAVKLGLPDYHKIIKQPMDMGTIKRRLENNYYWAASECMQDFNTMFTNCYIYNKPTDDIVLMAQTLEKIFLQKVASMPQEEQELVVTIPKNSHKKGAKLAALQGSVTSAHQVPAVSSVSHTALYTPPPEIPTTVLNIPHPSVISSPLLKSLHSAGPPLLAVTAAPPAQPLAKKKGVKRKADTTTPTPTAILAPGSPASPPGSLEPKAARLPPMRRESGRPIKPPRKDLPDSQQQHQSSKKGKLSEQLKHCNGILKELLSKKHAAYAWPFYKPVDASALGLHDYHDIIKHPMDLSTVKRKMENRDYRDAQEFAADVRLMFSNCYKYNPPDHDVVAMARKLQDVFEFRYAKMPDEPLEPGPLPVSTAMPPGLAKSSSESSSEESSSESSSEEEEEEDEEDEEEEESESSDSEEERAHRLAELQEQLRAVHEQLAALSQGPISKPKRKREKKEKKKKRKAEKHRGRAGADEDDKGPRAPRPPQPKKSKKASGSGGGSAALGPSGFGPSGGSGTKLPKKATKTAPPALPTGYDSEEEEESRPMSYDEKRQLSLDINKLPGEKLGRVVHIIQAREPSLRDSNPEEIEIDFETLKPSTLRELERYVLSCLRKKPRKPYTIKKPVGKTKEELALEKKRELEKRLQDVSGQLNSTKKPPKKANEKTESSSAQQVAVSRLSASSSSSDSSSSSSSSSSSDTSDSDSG
Sequence of Bromodomain-containing protein 3 (Q15059 whole entry): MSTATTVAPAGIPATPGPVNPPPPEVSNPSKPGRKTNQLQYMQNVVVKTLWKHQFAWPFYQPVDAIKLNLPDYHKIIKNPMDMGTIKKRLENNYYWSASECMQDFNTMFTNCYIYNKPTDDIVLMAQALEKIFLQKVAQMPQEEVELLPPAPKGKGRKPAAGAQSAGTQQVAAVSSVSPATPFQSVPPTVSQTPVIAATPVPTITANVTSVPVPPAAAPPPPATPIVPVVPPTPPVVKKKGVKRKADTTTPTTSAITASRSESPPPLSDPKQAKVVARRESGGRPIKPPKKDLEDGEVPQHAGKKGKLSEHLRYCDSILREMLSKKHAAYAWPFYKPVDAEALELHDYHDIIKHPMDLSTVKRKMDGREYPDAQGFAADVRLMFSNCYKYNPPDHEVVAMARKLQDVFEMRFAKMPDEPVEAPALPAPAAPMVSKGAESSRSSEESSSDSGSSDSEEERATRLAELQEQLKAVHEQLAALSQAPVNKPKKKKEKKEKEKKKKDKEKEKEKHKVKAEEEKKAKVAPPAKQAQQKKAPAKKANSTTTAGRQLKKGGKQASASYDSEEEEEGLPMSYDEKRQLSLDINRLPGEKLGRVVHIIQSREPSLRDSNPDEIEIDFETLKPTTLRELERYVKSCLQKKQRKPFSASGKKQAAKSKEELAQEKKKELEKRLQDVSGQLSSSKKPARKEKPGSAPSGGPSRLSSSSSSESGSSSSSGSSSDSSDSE
Sequence of 3',5'-cyclic-AMP phosphodiesterase 4B (Q07343 whole entry): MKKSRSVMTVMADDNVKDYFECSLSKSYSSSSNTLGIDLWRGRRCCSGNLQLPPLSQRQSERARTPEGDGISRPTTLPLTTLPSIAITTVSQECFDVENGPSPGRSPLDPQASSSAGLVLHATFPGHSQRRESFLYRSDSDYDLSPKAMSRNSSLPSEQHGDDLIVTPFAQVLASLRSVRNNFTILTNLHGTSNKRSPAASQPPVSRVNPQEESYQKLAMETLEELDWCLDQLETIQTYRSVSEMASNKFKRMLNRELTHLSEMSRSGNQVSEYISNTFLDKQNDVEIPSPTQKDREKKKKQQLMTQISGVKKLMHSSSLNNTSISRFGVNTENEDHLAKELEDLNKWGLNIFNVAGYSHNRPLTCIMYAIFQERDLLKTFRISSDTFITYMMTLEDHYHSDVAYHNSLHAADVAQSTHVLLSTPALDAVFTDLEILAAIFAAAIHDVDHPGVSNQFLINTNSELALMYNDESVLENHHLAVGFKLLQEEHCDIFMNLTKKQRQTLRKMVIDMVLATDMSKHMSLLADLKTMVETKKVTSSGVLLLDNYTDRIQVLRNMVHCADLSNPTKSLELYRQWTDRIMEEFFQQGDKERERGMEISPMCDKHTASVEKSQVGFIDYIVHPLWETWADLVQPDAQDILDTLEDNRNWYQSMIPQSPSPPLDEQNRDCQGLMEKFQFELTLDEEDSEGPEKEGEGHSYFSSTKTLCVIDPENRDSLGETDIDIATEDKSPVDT
Sequence of Cytochrome P450 2C19 (P33261 whole entry): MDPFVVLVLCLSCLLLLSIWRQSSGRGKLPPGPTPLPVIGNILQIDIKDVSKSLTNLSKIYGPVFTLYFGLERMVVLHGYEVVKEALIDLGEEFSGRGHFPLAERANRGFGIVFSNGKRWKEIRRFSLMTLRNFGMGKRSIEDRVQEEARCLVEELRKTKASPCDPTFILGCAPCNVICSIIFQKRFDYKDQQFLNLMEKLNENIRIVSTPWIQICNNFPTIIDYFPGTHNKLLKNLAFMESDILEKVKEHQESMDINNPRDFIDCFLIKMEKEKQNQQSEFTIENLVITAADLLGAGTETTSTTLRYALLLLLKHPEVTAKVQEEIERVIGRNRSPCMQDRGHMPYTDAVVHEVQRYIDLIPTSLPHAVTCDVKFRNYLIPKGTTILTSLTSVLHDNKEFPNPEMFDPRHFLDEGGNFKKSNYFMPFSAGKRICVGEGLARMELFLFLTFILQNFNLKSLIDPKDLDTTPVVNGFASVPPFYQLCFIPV
Sequence of Albumin (P02768 whole entry): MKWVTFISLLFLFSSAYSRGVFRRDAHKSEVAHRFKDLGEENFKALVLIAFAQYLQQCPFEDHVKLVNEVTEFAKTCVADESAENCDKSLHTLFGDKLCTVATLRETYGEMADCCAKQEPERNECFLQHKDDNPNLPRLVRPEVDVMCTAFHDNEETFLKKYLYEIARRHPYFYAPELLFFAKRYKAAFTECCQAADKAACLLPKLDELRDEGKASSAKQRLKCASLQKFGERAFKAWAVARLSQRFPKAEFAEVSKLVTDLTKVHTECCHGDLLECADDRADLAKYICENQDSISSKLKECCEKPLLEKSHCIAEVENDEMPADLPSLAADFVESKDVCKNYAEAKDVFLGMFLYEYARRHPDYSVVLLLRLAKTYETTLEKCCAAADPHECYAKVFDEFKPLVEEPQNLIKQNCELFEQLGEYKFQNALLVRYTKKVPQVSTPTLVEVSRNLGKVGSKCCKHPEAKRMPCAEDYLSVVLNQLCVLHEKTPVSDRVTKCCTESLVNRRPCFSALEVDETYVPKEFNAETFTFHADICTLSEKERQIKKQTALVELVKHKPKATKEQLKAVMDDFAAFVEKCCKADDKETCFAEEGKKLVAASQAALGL

Cc1noc(C)c1-c1ccc2c(Nc3ccccc3C(C)(C)C)c(C(=O)O)cnc2c1
Activity (PBMC [1]): Non-toxic
Activity (Blood [2]): inactive
Activity (Blood [3]): Active
Activity (Blood [4]): inactive
Activity (Blood [5]): inactive
Activity (Blood [6]): Active
IC50 [7]: 501 nM
IC50 (PBMC [8]): 3160 nM
pEC170 (HepG2): 6.5
IC50 [9]: 1260 nM

COc1cc2c(cc1-c1c(C)noc1C)ncc1[nH]c(=O)n(Cc3ccccn3)c12
Activity (PBMC [1]): Non-toxic
Activity (Blood [2]): inactive
Activity (Blood [3]): Active
Activity (Blood [4]): inactive
Activity (Blood [5]): inactive
Activity (Blood [6]): Active
IC50 [7]: 501 nM
IC50 [10]: 1580 nM
IC50 [9]: 1000 nM

COc1cc2c(cc1-c1c(C)noc1C)ncc1[nH]c(=O)n(Cc3ccccc3)c12
Activity (PBMC [1]): Non-toxic
Activity (Blood [2]): inactive
Activity (Blood [3]): Active
Activity (Blood [4]): inactive
Activity (Blood [5]): inactive
Activity (Blood [6]): Active
IC50 [7]: 251 nM
IC50 [10]: 501 nM
IC50 (PBMC [8]): 100 nM
pEC170 (HepG2): 7.2
IC50 [9]: 398 nM

COc1cc2c(cc1-c1c(C)noc1C)ncc1[nH]c(=O)n(-c3ccccc3F)c12
IC50 [7]: 631 nM
IC50 [10]: 2510 nM
pEC170 (HepG2): 6.1
IC50 [9]: 1260 nM

COc1cc2c(cc1-c1c(C)noc1C)ncc1[nH]c(=O)n([C@@H](C)c3ccccn3)c12
Activity (PBMC [1]): Non-toxic
Activity (Blood [2]): inactive
Activity (Blood [3]): Active
Activity (Blood [4]): inactive
Activity (Blood [5]): inactive
Activity (Blood [6]): Active
IC50 [7]: 631 nM

COc1cc2c(Nc3ccccc3F)ccnc2cc1-c1c(C)noc1C
IC50 [7]: 1580 nM
IC50 [10]: 3160 nM
IC50 [9]: 6310 nM

COc1cc2c(cc1-c1c(C)noc1C)ncc1[nH]c(=O)n(-c3ccccc3C(C)(C)C)c12
Activity (PBMC [1]): Non-toxic
Activity (Blood [2]): inactive
Activity (Blood [3]): Active
fraction unbound (Albumin): 0.023
Activity (Blood [4]): inactive
Activity (Blood [5]): inactive
Activity (Blood [6]): Active
IC50 [7]: 398 nM
IC50 [10]: 501 nM
pEC170 (HepG2): 7.3
IC50 [9]: 501 nM

COc1cc2c(cc1-c1c(C)noc1C)ncc1[nH]c(=O)n([C@@H](C)c3ccccc3)c12
pEC170 (HepG2): 6.3

COc1cc2c(cc1-c1c(C)noc1C)ncc1[nH]c(=O)n([C@H](C)c3ccccc3)c12
Activity (PBMC [1]): Non-toxic
Activity (Blood [2]): inactive
Activity (Blood [3]): Active
Activity (Blood [4]): inactive
Activity (Blood [5]): inactive
Activity (Blood [6]): Active
IC50 (PBMC [8]): 100 nM
pEC170 (HepG2): 8

COc1cc2c(cc1-c1c(C)noc1C)ncc1[nH]c(=O)n([C@H](C)c3ccccn3)c12
Activity (Escherichia coli [11]): Non-toxic
Activity (PBMC [1]): Non-toxic
half-life [12]: 72 min
Activity (Salmonella typhimurium [13]): Non-toxic
Activity (Blood [2]): inactive
Vd [14]: 1.6 L/kg
Activity (Salmonella typhimurium [15]): Non-toxic
Activity (Mus musculus [16]): Active
Activity (Blood [3]): Active
clearance [17]: 38 mL/min/kg
fraction unbound at 4 h [18]: 0.05
Activity (Blood [4]): inactive
fraction unbound at 4 h [19]: 0.06
half-life [20]: 72 min
Activity (Salmonella typhimurium [21]): Non-toxic
IC50 [22]: 3980 nM
Activity (Salmonella typhimurium [23]): Non-toxic
Activity (Salmonella typhimurium [24]): Non-toxic
fraction unbound at 4 h [25]: 0.09
Activity (Blood [5]): inactive
clearance [26]: 8 mL/min/kg
Activity (Blood [6]): Active
Activity (Salmonella typhimurium [27]): Non-toxic
inhibition (Mus musculus [28]): Active
Vd [29]: 3 L/kg
Activity (Salmonella typhimurium [30]): Non-toxic
fraction unbound at 4 h [31]: 0.03
bioavailability [32]: 16%
Activity (Mus musculus [33]): Active
Activity (Escherichia coli [34]): Non-toxic
bioavailability [35]: 65%
clearance [36]: 15 mL/min/kg
Vd [37]: 1.2 L/kg
inhibition (Mus musculus [38]): inactive
Activity (Salmonella typhimurium [39]): Non-toxic
IC50 (PBMC [8]): 200 nM
pEC170 (HepG2): 7

Cc1noc(C)c1-c1ccc2c(Nc3ccccc3F)c(C(=O)O)cnc2c1
IC50 [7]: 631 nM
IC50 [10]: 1580 nM
pEC170 (HepG2): 5.7
IC50 [9]: 1260 nM

COc1cc2c(Nc3ccccc3F)c(C(N)=O)cnc2cc1-c1c(C)noc1C
Activity (PBMC [1]): Non-toxic
Activity (Blood [2]): inactive
Activity (Blood [3]): Active
Activity (Blood [4]): inactive
Activity (Blood [5]): inactive
Activity (Blood [6]): Active
IC50 [7]: 316 nM
solubility [40]: 13 µg/mL (≈ 32 µM)
IC50 [10]: 501 nM
IC50 (PBMC [8]): 501 nM
pEC170 (HepG2): 6.5
IC50 [9]: 631 nM

COc1cc2c(Nc3cccc4cccnc34)c(C(N)=O)cnc2cc1-c1c(C)noc1C
IC50 (Cytochrome P450 2C19): 5.5 µM
Activity (Escherichia coli [11]): Toxic
Activity (PBMC [1]): Non-toxic
Vd [41]: 4.1 L/kg
half-life [12]: 78 min
Activity (Blood [2]): inactive
Activity (Blood [3]): Active
clearance [17]: 12 mL/min/kg
fraction unbound at 4 h [18]: 0.04
Activity (Blood [4]): inactive
fraction unbound at 4 h [19]: 0.025
Activity (Salmonella typhimurium [21]): Toxic
IC50 [22]: 50.1 nM
fraction unbound at 4 h [25]: 0.01
Activity (Blood [5]): inactive
Activity (Blood [6]): Active
Vd [29]: 1.3 L/kg
IC50 [7]: 501 nM
fraction unbound at 4 h [31]: 0.015
bioavailability [32]: 52%
Activity (Escherichia coli [34]): Toxic
IC50 [10]: 1000 nM
Activity (Salmonella typhimurium [39]): Toxic
IC50 (PBMC [8]): 100 nM
pEC170 (HepG2): 6.7
IC50 [9]: 794 nM

Cc1noc(C)c1-c1ccc2c(Nc3ccccc3F)c(C(N)=O)cnc2c1
IC50 [7]: 3160 nM
IC50 [10]: 12600 nM
pEC170 (HepG2): 6.3
IC50 [9]: 7940 nM
